Data reported in publication PMC9268553 (Molecules, 2022).
“And” between values parts separate entries of the source, which are not always exact repeats. Equal entries are not always repeated. Where two headings read alike, the source gives them in different places.

Legend:
[1] = target: T1, human fXa (Homo sapiens, UniProt P00742); assay: biochemical
T1 construct: purchased Chromogenix AB-Instrumentation Laboratories (Milan, Italy)

[2] = target: T2, bovine thrombin (Bos taurus, UniProt P00735); assay: thrombin inhibition, chromogenic substrate S-2238; type: biochemical
T2 construct: purchased Sigma-Aldrich (Milan, Italy)

[3] = target: α-chymotrypsin (Bos taurus, UniProt P00766); assay: α-chymotrypsin inhibition; type: biochemical; details: read-out: Ki αCHT
[4] = target: T3, AChE (from electric eel) (Electrophorus electricus, UniProt O42275); assay: biochemical; details: for inhibition at 50 µM: read-out: inhibition percentage AchE
T3 construct: AChE (from electric eel); from tissue

[5] = target: T4, BChE (from horse serum) (Equus caballus, UniProt P81908); assay: biochemical; details: for inhibition at 50 µM: read-out: inhibition percentage BchE
T4 construct: BChE (from horse serum); from tissue; host or cells: horse serum

[6] = Cheng–Prusoff from IC50, pH 8, mean of three measurements, read-out: Ki fXa
[7] = electric eel AChE, Cheng–Prusoff from IC50, read-out: Ki AchE
[8] = horse serum BChE, Cheng–Prusoff from IC50

T4 sequence (P81908 whole entry): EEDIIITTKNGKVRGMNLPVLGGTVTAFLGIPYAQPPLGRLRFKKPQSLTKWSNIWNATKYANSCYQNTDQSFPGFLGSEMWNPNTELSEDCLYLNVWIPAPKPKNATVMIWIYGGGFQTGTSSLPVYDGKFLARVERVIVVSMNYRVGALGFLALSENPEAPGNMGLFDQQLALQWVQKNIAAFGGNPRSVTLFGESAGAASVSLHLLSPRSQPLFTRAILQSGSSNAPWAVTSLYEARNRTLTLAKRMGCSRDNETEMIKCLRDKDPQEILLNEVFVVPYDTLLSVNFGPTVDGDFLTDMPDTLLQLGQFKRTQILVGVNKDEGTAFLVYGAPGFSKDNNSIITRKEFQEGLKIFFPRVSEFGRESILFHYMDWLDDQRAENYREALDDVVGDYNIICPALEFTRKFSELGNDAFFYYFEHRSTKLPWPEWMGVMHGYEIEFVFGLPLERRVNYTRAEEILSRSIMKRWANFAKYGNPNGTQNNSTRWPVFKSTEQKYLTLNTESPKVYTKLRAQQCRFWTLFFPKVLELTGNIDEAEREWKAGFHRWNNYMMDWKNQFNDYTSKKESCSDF
T3 sequence (O42275 24-633): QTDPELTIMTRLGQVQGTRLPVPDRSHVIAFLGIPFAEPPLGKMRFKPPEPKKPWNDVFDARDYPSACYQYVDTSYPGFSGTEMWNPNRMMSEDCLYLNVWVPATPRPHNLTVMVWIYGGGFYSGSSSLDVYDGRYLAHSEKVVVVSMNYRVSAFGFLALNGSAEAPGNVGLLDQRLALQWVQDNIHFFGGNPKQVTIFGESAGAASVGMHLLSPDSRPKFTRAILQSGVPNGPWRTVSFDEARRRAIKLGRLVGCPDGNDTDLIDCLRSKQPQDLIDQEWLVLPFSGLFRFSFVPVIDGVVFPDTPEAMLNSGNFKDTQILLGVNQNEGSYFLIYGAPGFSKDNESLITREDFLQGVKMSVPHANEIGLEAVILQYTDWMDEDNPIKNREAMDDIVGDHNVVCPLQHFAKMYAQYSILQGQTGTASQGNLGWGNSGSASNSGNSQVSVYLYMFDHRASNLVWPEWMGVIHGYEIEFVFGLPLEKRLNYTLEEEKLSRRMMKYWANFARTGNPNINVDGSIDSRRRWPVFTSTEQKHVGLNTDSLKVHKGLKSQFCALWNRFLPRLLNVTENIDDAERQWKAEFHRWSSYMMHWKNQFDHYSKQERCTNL
T1 sequence (P00742 235-488 limits assumed): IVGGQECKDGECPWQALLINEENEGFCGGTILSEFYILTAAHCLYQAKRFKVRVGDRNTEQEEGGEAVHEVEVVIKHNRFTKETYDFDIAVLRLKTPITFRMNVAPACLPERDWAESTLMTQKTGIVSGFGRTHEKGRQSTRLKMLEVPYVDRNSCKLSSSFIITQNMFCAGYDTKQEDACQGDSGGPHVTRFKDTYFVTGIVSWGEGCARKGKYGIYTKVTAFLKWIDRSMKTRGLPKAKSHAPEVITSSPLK
T1 sequence (P00742 41-179 partner limits assumed): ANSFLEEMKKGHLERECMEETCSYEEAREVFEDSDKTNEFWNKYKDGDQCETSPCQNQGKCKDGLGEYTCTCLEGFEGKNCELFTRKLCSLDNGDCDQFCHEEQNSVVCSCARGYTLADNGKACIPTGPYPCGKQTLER

Row | Structure (SMILES) | Ki [1, 6] | Ki [2] | Ki [3] | Ki [4, 7] | Ki [5, 8] | also measured
1 | N=C(N)c1ccc(NC(=O)CNC(=O)Cc2ccccc2)cc1 [Compound 4a] | > 50 µM | 39.4 µM |  |  |  | 
2 | N=C(N)c1cccc(NC(=O)CNC(=O)Cc2ccccc2)c1 [Compound 4b] | 25.6 µM | 24.1 µM |  |  |  | 
3 | N=C(N)c1cccc(NC(=O)CNC(=O)Cc2ccc(-c3ccc(F)cc3F)cc2)c1 [Compound 4c] | 1.01 µM | 10.7 µM | 35 µM |  |  | decrease of anti-fXa activity from malonamide 19h to glycinamide 4c ([1]; ratio of Ki, relative to 19h): about 20 times
4 | N=C(N)c1ccc(NC(=O)CC(=O)NCc2ccccc2)cc1 [Compound 18a] | 23.2 µM | > 50 µM |  |  |  | 
5 | N=C(N)c1cccc(NC(=O)CC(=O)NCc2ccccc2)c1 [Compound 18b] | 12.3 µM | > 50 µM |  |  |  | 
6 | N=C(N)c1ccc(NC(=O)CC(=O)NCCc2ccccc2)cc1 [Compound 18c] | > 50 µM | > 50 µM |  |  |  | 
7 | N=C(N)c1ccc(NC(=O)CC(=O)NCCCc2ccccc2)cc1 [Compound 18d] | 39.8 µM | 25.5 µM |  |  |  | 
8 | N=C(N)c1ccc(NC(=O)CC(=O)NCCCCc2ccccc2)cc1 [Compound 18e] | 18.6 µM | 5.5 µM |  |  |  | 
9 | Cc1ccc(CNC(=O)CC(=O)Nc2ccc(C(=N)N)cc2)cc1 [Compound 19a] | 4.4 µM | 36.5 µM |  |  |  | 
10 | Cc1ccc(CNC(=O)CC(=O)Nc2cccc(C(=N)N)c2)cc1 [Compound 19b] | 4.2 µM | 36.6 µM |  |  |  | 
11 | N=C(N)c1ccc(NC(=O)CC(=O)NCc2ccc(-c3ccccc3)cc2)cc1 [Compound 19c] | > 50 µM | > 50 µM |  |  |  | 
12 | N=C(N)c1cccc(NC(=O)CC(=O)NCc2ccc(-c3ccccc3)cc2)c1 [Compound 19d] | 1.56 µM | > 50 µM | 4.3 µM | 9.33 µM |  | inhibition at 50 µM [5]: 28%
13 | N=C(N)c1cccc(NC(=O)CC(=O)NCc2ccc(-c3ccccc3F)cc2)c1 [Compound 19e] | 0.93 µM and 0.932 µM | 14.6 µM | > 50 µM |  | 7.7 µM | inhibition at 50 µM [4]: 35%
14 | N=C(N)c1cccc(NC(=O)CC(=O)NCc2ccc(-c3cccc(F)c3)cc2)c1 [Compound 19f] | 0.35 µM and 0.348 µM | 18.8 µM | 26.5 µM |  |  | Ki ([4]; read-out: Ki AchE): 8.11 µM; Ki [5]: 8.09 µM
15 | N=C(N)c1cccc(NC(=O)CC(=O)NCc2ccc(-c3ccc(F)cc3)cc2)c1 [Compound 19g] | 0.91 µM and 0.907 µM | 6.19 µM | > 50 µM | 4.48 µM |  | inhibition at 50 µM [5]: 37%
16 | N=C(N)c1cccc(NC(=O)CC(=O)NCc2ccc(-c3ccc(F)cc3F)cc2)c1 [Compound 19h] | 0.057 µM | 16.1 µM | > 50 µM | 2.44 µM | 1.52 µM | Ki ([1]; read-out: Ki against fXa): 0.057 µM
17 | N=C(N)c1cccc(NC(=O)CC(=O)NCc2ccc(-c3cc(F)cc(F)c3)cc2)c1 [Compound 19i] | 0.264 µM | 26.7 µM | 30.2 µM |  | 8.02 µM | inhibition at 50 µM [4]: 5%
18 | CC(C)(C(=O)NCc1ccc(-c2ccc(F)cc2F)cc1)C(=O)Nc1cccc(C(=N)N)c1 [Compound 19l] | 0.214 µM | > 50 µM | > 50 µM |  | 1.55 µM | Ki [4]: 3.74 µM
19 | N=C(N)c1cccc(NC(=O)CC(=O)Nc2cccc(OCCc3ccc(F)cc3)c2)c1 [Compound 20a] | 0.413 µM | 12 µM | > 50 µM | 10 µM | 1.02 µM | 
20 | COc1ccc(CCOc2cccc(NC(=O)CC(=O)Nc3cccc(C(=N)N)c3)c2)cc1 [Compound 20b] | 0.205 µM | 6.66 µM | > 50 µM | 1.56 µM | 5.84 µM | 
21 | N=C(N)c1cccc(NC(=O)CC(=O)N2CCN(c3ccc(F)cc3)CC2)c1 [Compound 21a] | 0.423 µM | 31.4 µM | > 50 µM | 4.68 µM | 10 µM | 
22 | N=C(N)c1cccc(NC(=O)CC(=O)N2CCC(Oc3ccc(F)cc3)CC2)c1 [Compound 22a] | 0.35 µM | > 50 µM | > 50 µM | 1.88 µM |  | inhibition at 50 µM [5]: 22%
23 | N=C(N)c1cccc(NC(=O)CC(=O)N2CCC(Oc3ccc(F)cc3F)CC2)c1 [Compound 22b] | 0.089 µM | > 50 µM | > 50 µM | 2.31 µM |  | inhibition at 50 µM [5]: 25%
24 | N=C(N)c1cccc(NC(=O)CC(=O)N2CCC(Oc3ccc(F)c(F)c3)CC2)c1 [Compound 22c] | 0.12 µM | 27 µM | > 50 µM | 2.68 µM | 10.9 µM | 
25 | N=C(N)c1cccc(NC(=O)CC(=O)Nc2ccc(OC3CCNCC3)cc2)c1 [Compound 23a] | 0.59 µM | 42.4 µM | > 50 µM |  | 10 µM | inhibition at 50 µM [4]: 1%
26 | CC(C)N1CCC(Oc2ccc(NC(=O)CC(=O)Nc3cccc(C(=N)N)c3)cc2)CC1 [Compound 23b] | 2.3 µM | > 50 µM | > 50 µM | 1.3 µM | 0.65 µM | 
